Results on eight compounds are retold here after ChEMBL document CHEMBL5465560, “Selectivity Literature for EUbOPEN Chemogenomic Library” (2024).

Series [1] concerns the target Epithelial discoidin domain-containing receptor 1 (Homo sapiens) (UniProt Q08345). The series is described as follows: Selectivity interaction (KinomeScan (DiscoverX)) EUB0000655a DDR1. To be noted: at 10 µM.
In series [2] the target is T1, Cyclin-dependent kinase-like 2 (Homo sapiens) (UniProt Q92772).
T1 sequence (whole entry): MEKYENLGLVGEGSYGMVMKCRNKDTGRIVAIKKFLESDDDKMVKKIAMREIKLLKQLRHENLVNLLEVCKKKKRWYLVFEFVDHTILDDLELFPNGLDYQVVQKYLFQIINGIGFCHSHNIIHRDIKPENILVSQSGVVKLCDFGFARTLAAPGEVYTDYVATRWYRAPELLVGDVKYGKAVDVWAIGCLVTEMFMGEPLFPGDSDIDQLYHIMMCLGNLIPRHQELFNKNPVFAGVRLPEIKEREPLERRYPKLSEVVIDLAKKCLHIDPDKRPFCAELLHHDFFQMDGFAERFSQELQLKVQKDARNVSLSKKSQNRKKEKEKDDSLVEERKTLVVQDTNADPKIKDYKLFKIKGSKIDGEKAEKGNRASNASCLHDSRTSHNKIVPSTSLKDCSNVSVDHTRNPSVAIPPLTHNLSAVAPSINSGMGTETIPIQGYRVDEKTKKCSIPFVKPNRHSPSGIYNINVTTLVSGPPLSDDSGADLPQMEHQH
The series is described as follows: Selectivity interaction (KinomeScan (DiscoverX)) EUB0001079a CDKL2. To be noted: at 1 µM.

For series [3], the target named is Phosphorylase b kinase gamma catalytic chain, skeletal muscle/heart isoform (Homo sapiens) (UniProt Q16816). The series is described as follows: Selectivity interaction (KinomeScan (DiscoverX)) EUB0001079a PHKG1. To be noted: at 1 µM.
Series [4] concerns the target Cyclin-dependent kinase 18 (Homo sapiens) (UniProt Q07002). The series is described as follows: Selectivity interaction (KinomeScan (DiscoverX)) EUB0001619a CDK18. To be noted: at 1 µM.
Series [5] addresses Interferon-induced, double-stranded RNA-activated protein kinase (Homo sapiens) (UniProt P19525). Nature of the series: Selectivity interaction (ActivX KiNativ screen (kinase selectivity in THP-1 cell lysates)) EUB0000639a EIF2AK2. To be noted: lysate, at 5 µM. The series is classed as subcellular.
Series [6] concerns the target L-type calcium channel Cav1.2 (CACNA1C) (Homo sapiens, UniProt Q13936). Nature of the series: Selectivity interaction (Eurofins CEREP Diversity Profile (receptors and ion channels)) EUB0000279b CACNA1C. The note with it: at 10 µM, read-out: % of control.
For series [7], the target named is T2, Serine/threonine-protein kinase DCLK1 (Homo sapiens) (UniProt O15075).
T2 sequence (whole entry): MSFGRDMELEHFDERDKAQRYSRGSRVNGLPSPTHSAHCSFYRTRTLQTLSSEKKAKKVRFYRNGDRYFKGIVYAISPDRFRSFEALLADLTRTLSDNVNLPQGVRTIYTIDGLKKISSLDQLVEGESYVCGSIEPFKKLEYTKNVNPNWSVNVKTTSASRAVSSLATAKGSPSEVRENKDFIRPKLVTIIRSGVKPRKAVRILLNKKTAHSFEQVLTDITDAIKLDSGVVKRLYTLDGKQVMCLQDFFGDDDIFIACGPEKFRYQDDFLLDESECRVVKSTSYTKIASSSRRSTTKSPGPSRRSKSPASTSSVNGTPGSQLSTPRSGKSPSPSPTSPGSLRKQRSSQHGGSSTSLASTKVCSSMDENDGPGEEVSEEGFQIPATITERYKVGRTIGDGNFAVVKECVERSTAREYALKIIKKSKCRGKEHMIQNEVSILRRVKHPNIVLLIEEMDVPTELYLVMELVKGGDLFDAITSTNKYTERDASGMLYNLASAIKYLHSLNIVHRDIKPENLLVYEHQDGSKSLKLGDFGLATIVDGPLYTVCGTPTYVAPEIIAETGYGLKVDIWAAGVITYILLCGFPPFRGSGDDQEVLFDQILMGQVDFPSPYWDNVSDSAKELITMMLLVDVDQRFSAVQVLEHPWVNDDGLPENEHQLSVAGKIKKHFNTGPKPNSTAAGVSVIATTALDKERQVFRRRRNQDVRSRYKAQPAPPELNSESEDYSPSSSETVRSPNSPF
The series is described as follows: Selectivity interaction (Kinase panel (DSF assay)) EUB0001559a DCLK1.

Series [8] addresses Rho-associated protein kinase 2 (Homo sapiens, UniProt O75116). Nature of the series: Selectivity interaction (KinomeScan (DiscoverX)) EUB0000045b ROCK2.
For series [9], the target named is Serine/threonine-protein kinase PAK 1 (Homo sapiens) (UniProt Q13153). The series is described as follows: Selectivity interaction (KinomeScan (DiscoverX)) EUB0000595a PAK1. The note with it: at 10 µM.
Chain of Serine/threonine-protein kinase PAK 1 (Homo sapiens) (Q13153 whole entry): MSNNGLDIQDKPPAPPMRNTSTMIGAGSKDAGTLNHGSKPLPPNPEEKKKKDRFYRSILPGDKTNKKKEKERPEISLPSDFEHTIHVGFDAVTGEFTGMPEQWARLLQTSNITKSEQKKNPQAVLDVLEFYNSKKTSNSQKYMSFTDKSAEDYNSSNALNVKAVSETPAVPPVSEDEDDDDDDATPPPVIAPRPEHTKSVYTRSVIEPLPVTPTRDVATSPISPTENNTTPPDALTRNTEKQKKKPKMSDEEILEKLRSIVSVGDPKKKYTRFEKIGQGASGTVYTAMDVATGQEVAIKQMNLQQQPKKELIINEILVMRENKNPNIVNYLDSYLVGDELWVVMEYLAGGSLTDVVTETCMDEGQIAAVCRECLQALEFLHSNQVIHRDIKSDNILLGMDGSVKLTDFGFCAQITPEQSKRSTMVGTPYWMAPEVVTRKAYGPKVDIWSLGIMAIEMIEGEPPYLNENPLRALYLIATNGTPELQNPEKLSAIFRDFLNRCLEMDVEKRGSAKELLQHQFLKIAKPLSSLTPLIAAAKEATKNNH

Chain of Rho-associated protein kinase 2 (O75116 whole entry, looked up): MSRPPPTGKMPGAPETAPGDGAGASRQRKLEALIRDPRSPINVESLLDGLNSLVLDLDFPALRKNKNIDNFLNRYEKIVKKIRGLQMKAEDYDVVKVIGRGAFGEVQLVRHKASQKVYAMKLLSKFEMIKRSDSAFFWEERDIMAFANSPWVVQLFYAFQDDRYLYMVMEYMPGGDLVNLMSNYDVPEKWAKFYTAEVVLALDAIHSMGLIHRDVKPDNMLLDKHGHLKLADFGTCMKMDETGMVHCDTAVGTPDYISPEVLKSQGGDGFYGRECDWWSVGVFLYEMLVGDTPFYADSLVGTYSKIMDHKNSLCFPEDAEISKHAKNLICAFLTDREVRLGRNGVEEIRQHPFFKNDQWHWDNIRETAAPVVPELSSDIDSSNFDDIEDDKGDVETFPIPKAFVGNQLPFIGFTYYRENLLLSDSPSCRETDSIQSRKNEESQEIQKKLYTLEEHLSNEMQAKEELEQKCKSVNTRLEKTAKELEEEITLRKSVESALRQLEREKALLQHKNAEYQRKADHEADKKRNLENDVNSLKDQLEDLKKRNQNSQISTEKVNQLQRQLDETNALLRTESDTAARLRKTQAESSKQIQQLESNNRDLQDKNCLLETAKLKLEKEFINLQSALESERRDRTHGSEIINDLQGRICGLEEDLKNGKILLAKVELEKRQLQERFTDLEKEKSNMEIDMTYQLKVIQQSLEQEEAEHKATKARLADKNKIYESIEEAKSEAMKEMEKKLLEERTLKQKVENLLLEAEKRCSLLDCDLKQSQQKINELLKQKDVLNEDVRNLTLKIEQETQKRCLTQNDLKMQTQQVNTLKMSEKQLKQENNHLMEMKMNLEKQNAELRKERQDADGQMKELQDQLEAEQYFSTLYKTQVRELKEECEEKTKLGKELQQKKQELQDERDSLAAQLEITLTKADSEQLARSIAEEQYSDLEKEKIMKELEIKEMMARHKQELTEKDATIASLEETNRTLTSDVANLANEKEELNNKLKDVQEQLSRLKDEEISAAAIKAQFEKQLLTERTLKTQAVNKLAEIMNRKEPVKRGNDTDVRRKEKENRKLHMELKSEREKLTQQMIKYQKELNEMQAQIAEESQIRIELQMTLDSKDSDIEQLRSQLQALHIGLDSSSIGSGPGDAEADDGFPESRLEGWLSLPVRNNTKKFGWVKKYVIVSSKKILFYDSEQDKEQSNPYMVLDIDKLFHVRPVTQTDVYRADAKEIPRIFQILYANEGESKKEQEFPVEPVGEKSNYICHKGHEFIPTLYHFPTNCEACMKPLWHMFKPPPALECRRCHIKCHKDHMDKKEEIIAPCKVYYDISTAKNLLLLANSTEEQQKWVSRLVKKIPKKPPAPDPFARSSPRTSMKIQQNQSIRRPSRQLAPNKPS
Chain of L-type calcium channel Cav1.2 (CACNA1C) (Q13936 whole entry): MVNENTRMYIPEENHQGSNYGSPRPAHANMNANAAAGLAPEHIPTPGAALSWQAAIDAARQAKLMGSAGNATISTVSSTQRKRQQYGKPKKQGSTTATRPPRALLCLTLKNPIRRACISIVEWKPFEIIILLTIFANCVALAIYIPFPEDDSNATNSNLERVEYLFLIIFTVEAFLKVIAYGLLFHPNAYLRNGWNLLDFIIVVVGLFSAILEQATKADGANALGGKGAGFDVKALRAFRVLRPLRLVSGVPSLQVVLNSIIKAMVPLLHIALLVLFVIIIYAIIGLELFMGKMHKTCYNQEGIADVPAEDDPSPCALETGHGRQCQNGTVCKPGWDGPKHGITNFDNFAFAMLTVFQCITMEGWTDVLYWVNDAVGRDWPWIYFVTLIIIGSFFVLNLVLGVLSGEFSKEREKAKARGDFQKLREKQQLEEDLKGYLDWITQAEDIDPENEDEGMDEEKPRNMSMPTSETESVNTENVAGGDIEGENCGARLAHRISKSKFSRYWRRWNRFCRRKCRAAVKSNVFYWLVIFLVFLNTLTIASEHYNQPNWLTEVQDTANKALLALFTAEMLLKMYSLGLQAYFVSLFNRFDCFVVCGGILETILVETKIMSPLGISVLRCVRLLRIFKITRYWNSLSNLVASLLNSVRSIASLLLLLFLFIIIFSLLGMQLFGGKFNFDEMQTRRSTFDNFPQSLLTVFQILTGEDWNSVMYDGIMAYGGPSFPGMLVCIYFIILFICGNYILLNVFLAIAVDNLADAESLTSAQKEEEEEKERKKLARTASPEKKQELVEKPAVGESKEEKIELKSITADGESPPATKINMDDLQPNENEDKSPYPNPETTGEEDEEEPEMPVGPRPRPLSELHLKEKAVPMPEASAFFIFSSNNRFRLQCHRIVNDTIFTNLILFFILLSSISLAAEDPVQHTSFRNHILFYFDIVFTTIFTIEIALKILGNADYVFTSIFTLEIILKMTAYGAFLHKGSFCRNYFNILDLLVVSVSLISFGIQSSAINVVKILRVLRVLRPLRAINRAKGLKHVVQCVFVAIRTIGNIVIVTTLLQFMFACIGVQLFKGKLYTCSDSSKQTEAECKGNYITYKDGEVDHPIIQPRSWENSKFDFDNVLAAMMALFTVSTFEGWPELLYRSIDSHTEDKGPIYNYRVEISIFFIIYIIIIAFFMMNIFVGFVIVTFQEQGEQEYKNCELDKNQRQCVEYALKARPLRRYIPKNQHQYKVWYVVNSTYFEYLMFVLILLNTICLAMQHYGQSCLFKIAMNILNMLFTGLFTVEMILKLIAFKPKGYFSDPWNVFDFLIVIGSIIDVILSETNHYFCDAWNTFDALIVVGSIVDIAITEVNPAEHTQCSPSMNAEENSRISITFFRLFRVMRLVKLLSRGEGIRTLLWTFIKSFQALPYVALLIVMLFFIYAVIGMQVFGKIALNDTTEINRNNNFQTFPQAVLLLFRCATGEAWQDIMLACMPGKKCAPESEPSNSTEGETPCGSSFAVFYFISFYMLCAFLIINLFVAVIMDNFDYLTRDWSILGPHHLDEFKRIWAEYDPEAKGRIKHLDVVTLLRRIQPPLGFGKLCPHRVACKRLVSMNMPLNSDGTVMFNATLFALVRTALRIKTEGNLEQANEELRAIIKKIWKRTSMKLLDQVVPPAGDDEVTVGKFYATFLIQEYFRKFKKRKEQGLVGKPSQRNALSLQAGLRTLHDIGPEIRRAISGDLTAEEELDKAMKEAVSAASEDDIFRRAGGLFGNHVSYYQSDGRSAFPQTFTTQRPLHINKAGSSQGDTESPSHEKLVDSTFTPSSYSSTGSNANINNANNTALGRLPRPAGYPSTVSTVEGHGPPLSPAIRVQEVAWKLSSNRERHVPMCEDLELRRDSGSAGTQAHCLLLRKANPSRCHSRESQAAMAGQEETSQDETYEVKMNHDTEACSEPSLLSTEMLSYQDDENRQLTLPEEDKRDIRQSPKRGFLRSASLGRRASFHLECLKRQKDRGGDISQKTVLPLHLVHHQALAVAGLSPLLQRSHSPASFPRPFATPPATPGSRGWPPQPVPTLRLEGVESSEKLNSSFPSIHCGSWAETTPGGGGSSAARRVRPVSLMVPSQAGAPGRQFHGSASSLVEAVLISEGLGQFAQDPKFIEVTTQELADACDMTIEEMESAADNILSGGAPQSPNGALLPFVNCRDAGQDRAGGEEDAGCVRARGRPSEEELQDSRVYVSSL
Chain of Epithelial discoidin domain-containing receptor 1 (Homo sapiens) (Q08345 whole entry, the tested form may be a part): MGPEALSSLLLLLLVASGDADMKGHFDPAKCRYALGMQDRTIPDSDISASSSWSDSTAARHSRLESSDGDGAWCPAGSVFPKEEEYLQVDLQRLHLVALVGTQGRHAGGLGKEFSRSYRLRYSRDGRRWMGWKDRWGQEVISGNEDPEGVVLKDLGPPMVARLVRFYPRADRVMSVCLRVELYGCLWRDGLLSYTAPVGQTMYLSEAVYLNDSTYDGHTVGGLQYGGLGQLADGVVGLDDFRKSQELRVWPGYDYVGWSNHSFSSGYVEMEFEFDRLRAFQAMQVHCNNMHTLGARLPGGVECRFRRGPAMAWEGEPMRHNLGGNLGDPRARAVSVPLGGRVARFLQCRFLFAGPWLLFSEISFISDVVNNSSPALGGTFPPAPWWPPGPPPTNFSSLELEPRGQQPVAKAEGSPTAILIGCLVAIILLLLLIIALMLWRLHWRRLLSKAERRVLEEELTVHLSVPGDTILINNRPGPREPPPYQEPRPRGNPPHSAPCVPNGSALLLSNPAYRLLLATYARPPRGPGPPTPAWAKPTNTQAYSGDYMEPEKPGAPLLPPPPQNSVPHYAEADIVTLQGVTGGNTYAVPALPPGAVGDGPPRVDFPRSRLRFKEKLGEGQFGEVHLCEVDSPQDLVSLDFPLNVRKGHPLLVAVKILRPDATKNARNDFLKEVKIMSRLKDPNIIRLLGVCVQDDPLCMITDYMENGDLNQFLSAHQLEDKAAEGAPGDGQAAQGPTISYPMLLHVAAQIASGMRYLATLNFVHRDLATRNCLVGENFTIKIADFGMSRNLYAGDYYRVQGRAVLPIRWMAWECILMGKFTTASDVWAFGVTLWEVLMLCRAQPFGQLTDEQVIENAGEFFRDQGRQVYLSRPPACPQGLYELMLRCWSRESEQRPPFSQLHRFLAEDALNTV

In the case of `CN(C)CCOc1ccc(-c2nc(-c3ccncc3)c(-c3ccc4c(c3)CC/C4=N\O)[nH]2)cc1`, in series [1], the % of control amounted to 43%. Take `Nc1cnc(N2CCc3cc(S(=O)(=O)Nc4c(F)cc(Cl)cc4F)cc(N4CCCC4=O)c32)nc1` [TP-020n]: the % of control was 85% in [2] and 71% in series [3]. `N#Cc1cccc(-c2c[nH]c3ncnc(N4CCOCC4)c23)c1` displayed a % of control in series [4] of 100%. As for `CC[C@@H]1[C@H](F)C(=O)N[C@@H]1COc1nccc2cc(C(N)=O)c(OC)cc12` [ZIMLOVISERTIB], in series [5], the % of inhibition stood at 0.6%.

With `CC(=O)c1cc(-c2ccccc2OCC2CC2)c2ncccn12`, the activity in series [6] came to 21%. `CN(C(=O)c1cnn2cccnc12)c1cc2c(cc1N1CCOCC1)C(=O)N(C[C@@H](F)C(C)(C)O)C2` registered a dTM in series [7] of -0.6 K. For `C=CC(=O)Nc1cc(-n2c(=O)ccc3cnc4ccc(-c5ccc(NS(C)(=O)=O)cc5)cc4c32)ccc1C`, the figures for the % of control in series [8] (at 1 µM) and in [8] (at 10 µM) were 87% and 79%, respectively. `COCC(=O)NC/C=C/c1ccc2ncnc(Nc3ccc(Oc4ccc(C)nc4)c(C)c3)c2c1` [CP-724714] came in with a % of control in series [9] of 81%.
